A short description of the series: Oral delivery of fluorescein with 10 kDa polymer: bioavailability and recovery in blood, urine and feces. Format: in vivo, rat. To be noted: ingestion. As for the experimental part: Eighteen rats have been selected and have been given either no polymer (rats 1, 2, 10, 11), or the polymer (10 kDa) at a dose of 5 mg/kg (rats 13-15), 50 mg/kg (rats 4-6, 12, 16-18) or 300 mg/kg (rats 3 and 7-9). Fluorescein has been either covalently coupled to the polymer (rats 4-9 and 13-18; labelled as PO or IV in the figures), or physically (non-covalently) adhered to the polymer (rats 3 and 12); labelled as PO* or IV* in the figures.
The polymer has been administered either per ingestion (PO or PO*) or by injection (IV or IV*). Blood concentration of the polymer-fluorescein (FIG. 1), or of the (potentially-free) fluorescein (FIG. 2) has been measured in the blood, in the feces (FIG. 4) and in urine (FIG. 3).

We go through one compound from patent US20250073167A1, “A POLYMER TO INCREASE THE BIOAVAILABILITY OF A PHARMACEUTICAL COMPOUND” (CATALYA, priority 2022, published 2025).

SMILES strings stand for the structures. Bounds are passed on as bounds.

Consider `O=C1OC2(c3ccc(O)cc3Oc3cc(O)ccc32)c2ccccc21` [free fluorescein, fluorescein], for which the “ingested fluorescein found in the feces” value (rats (FIG. 4)) is greater than 99%. Moreover, the ingested fluorescein internalized entry (rats, without the polymer) is “less than 1%”.
